Laboratory results reported in patent US20230114241A1, “METHODS OF TREATING EPILEPSY USING THE SAME” (Trevena, Inc., priority 2019, published 2023).

Tests used:
[1] = target: T1, human sphingosine-1-phosphate receptor 1 (S1P1) (Homo sapiens, UniProt P21453); test: β-Arrestin2 recruitment assay (PathHunter), S1P1 CHO-K1 cells; type: cell-based; conditions: for Emax: efficacy normalized to maximum efficacy of fingolimod, read-out: hS1P1 B-arrestin2 SPAN; for EC50: β-arrestin2 recruitment, read-out: hS1P1 B-arrestin2 pEC50 (converted)
Method: Stable clonal Chinese hamster ovary K1 (CHO-K1) cells co-expressing EA-β-arrestin2 and the human sphingosine-1-phosphate receptor 1 (NM_001400, S1P1) with a C-terminal Prolink™ tag were purchased from DiscoverX corporation (Cat #: 93-0207C2).
Cell lines were cultured in AssayComplete™ Media 6 (DiscoverX Corporation, Cat #: 920018GF2) at 37° C. and 5% CO2 in a humidified CO2 and temperature-controlled incubator. To begin assay plating, cells were washed with Dulbecco's phosphate buffered saline (CellGro, Cat #: 21-031-CV) and lifted from the culturing flask by incubation (37° C., 5 min) with CellStripper (Cellgro, Cat #: 25-056-CI). […] Plated cells were incubated overnight at 37° C. and 5% CO2 in a humidified CO2 and temperature-controlled incubator.
Agonist-promoted β-arrestin2 recruitment to the sphingosine-1-phosphate 1 receptor was determined using the β-arrestin PathHunter® Detection kit (DiscoverX Corporation, Cat #: 93-0001). […] In cells that stably express these fusion proteins, stimulation with a cognate agonist results in the interaction of β-arrestin2 and the Prolink™-tagged GPCR. This allows the complementation of the two β-galactosidase fragments and results in the formation of a functional enzyme with β-galactosidase activity. […] Following a 60 minute incubation at 37° C. and 5% CO2 in a humidified CO2 and temperature-controlled incubator, the components of the β-arrestin PathHunter® Detection kit were added as per the manufacturer's instructions. After an hour incubation at room temperature, plates were analyzed by a BMG PheraStar microplate reader.
These values are normalized to fingolimod, a known agonist of the sphingosine-1-phosphate 1 receptor.
Target sequence in this assay (P21453 whole entry): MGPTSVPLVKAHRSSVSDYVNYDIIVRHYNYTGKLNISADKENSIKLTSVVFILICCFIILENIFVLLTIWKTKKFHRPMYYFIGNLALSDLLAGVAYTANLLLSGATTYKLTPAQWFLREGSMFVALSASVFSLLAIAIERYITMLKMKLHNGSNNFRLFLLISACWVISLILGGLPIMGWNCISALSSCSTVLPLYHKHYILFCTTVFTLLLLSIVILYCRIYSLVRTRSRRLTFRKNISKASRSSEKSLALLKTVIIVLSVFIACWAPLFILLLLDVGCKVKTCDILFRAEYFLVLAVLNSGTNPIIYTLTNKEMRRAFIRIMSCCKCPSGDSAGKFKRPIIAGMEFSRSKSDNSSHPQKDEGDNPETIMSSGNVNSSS
Target sequence in this assay (P32121 whole entry partner): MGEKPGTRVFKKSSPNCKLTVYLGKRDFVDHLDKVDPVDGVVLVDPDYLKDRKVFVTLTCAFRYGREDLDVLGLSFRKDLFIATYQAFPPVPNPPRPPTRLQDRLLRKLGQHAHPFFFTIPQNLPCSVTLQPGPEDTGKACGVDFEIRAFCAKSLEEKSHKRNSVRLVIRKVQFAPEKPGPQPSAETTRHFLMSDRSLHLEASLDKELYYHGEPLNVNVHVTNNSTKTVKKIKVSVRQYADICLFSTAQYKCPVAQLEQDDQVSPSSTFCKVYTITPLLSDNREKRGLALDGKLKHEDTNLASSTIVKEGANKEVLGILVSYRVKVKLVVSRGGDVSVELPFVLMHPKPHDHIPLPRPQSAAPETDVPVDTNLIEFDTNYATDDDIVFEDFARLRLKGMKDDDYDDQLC

[2] = target: T1, human sphingosine-1-phosphate receptor 1 (S1P1); test: Inhibition of cAMP production (HTRF cAMP HiRange), S1P1 CHO-K1 cells; type: cell-based; conditions: for Emax: CHO-K1, efficacy normalized to maximum efficacy of fingolimod, read-out: hS1P1 CAMP SPAN; for EC50: read-out: hS1P1 CAMP pEC50 (converted)
Method in brief: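 CHO-K1 cells co-expressing human S1P1 (C-terminal ProLink tag) and EA-β-arrestin2, plated overnight; after 30 min compound incubation at 37 °C, intracellular cAMP measured by HTRF TR-FRET following 1 h at room temperature. Values normalized to fingolimod.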
Target sequence in this assay (P21453 whole entry): as the sequence (P21453 whole entry) above

[3] = inhibition of cAMP production, S1P1
[4] = CHO-K1, β-arrestin2 recruitment
[5] = inhibition of cAMP production, potency

SMILES: CCC1(CC)CC(=O)c2cc(-c3nc(-c4ncccn4)no3)ccc2O1 [Compound 640, 2,2-diethyl-6-(3-(pyrimidin-2-yl)-1,2,4-oxadiazol-5-yl)chroman-4-one]
- Emax ([1]; CHO-K1): < 75%
- EC50 ([1]; S1P1): > 10 µM
- Emax [2]: > 75%
- EC50 [2, 3]: > 0.316 µM

SMILES: COc1ccccc1-c1nsc(-c2ccc3c(c2)nnn3C(C)C)n1 [Compound 213, 5-[3-(2-methoxy-phenyl)-1,2,4-thiadiazol-5-yl]-1-(propan-2-yl)-1H-1,2,3-benzotriazole]
- Emax [1, 4]: > 75%
- EC50 ([1]; potency): > 10 µM
- Emax ([2]; inhibition of cAMP production): > 75%
- EC50 [2, 5]: > 0.316 µM

SMILES: Cc1ccsc1-c1noc(-c2ccc3c(c2)nnn3C2CCCC2)n1 [Compound 46, 1-cyclopentyl-5-[3-(3-methylthiophen-2-yl)-1,2,4-oxadiazol-5-yl]-1H-1,2,3-benzotriazole]
- Emax [1, 4]: > 75%
- EC50 ([1]; potency): < 10 µM
- Emax ([2]; inhibition of cAMP production): > 75%
- EC50 [2, 5]: < 0.316 µM

SMILES: COc1ccccc1-c1nc(-c2ccc3c(c2)nnn3CC(C)(C)CO)no1 [Compound 525, 3-(5-(5-(2-methoxy-phenyl)-1,2,4-oxadiazol-3-yl)-1H-benzo[d][1,2,3]triazol-1-yl)-2,2-dimethyl-propan-1-ol]
- Emax ([1]; CHO-K1): > 75%
- EC50 ([1]; S1P1): > 10 µM
- Emax [2]: > 75%
- EC50 [2, 3]: > 0.316 µM

SMILES: CCCn1nnc2cc(-c3nc(-c4ccccc4)no3)ccc21 [Compound 160, 5-(3-phenyl-1,2,4-oxadiazol-5-yl)-1-propyl-1H-1,2,3-benzotriazole]
- Emax [1, 4]: < 75%
- EC50 ([1]; potency): > 10 µM
- Emax ([2]; inhibition of cAMP production): < 75%
- EC50 [2, 5]: > 0.316 µM

SMILES: CCC1(CC)CC(=O)c2cc(-c3nc(-c4ccnc(NS(C)(=O)=O)c4)no3)ccc2O1 [Compound 556, N-(4-(5-(2,2-diethyl-4-oxochroman-6-yl)-1,2,4-oxadiazol-3-yl)pyridin-2-yl)methanesulfonamide]
- Emax ([1]; CHO-K1): < 75%
- EC50 ([1]; S1P1): < 10 µM
- Emax [2]: > 75%
- EC50 [2, 3]: < 0.316 µM

SMILES: CCC1(CC)CC(=O)c2cc(-c3nc(-c4ccc5c(c4)nnn5C(C)C)no3)ccc2O1 [Compound 305, 2,2-diethyl-6-(3-(1-isopropyl-1H-benzo[d][1,2,3]triazol-5-yl)-1,2,4-oxadiazol-5-yl)chroman-4-one]
- Emax [1, 4]: < 75%
- EC50 ([1]; potency): > 10 µM
- Emax ([2]; inhibition of cAMP production): > 75%
- EC50 [2, 5]: > 0.316 µM

SMILES: CC(C)n1ccc2cc(-c3nc(-c4cccc5c4OCCC5)no3)ccc21 [Compound 327, 3-chroman-8-yl-5-(1-isopropylindol-5-yl)-1,2,4-oxadiazole]
- Emax [1, 4]: > 75%
- EC50 ([1]; potency): < 10 µM
- Emax ([2]; inhibition of cAMP production): < 75%
- EC50 [2, 5]: > 0.316 µM

SMILES: CC(C)n1ccc2cc(-c3noc(-c4ccncc4)n3)ccc21 [Compound 395, 3-(1-isopropyl-1H-indol-5-yl)-5-(pyridin-4-yl)-1,2,4-oxadiazole]
- Emax ([1]; CHO-K1): > 75%
- EC50 ([1]; S1P1): < 10 µM
- Emax [2]: < 75%
- EC50 [2, 3]: < 0.316 µM

SMILES: CCC1(CC)CC(=O)c2cc(-c3nc(-c4ccc5ncccc5c4)no3)ccc2O1 [Compound 521, 2,2-diethyl-6-(3-(quinolin-6-yl)-1,2,4-oxadiazol-5-yl)chroman-4-one]
- Emax ([1]; CHO-K1): < 75%
- EC50 ([1]; S1P1): > 10 µM
- Emax [2]: < 75%
- EC50 [2, 3]: > 0.316 µM

SMILES: CC(C)Oc1ccc(-c2ncc(-c3ccc4c(c3)nnn4C(C)C)cn2)cc1C#N [Compound 595, 2-isopropoxy-5-(5-(1-isopropyl-1H-benzo[d][1,2,3]triazol-5-yl)pyrimidin-2-yl)benzonilrile]
- Emax ([1]; CHO-K1): > 75%
- EC50 ([1]; S1P1): < 10 µM
- Emax [2]: > 75%
- EC50 [2, 3]: < 0.316 µM

SMILES: CCC1(CC)CC(=O)c2cc(-c3noc(-c4cccnc4)n3)ccc2O1 [Compound 559, 2,2-diethyl-6-(5-(pyridin-3-yl)-1,2,4-oxadiazol-3-yl)chroman-4-one]
- Emax ([1]; CHO-K1): > 75%
- EC50 ([1]; S1P1): < 10 µM
- Emax [2]: > 75%
- EC50 [2, 3]: < 0.316 µM

SMILES: CC(C)c1ccc(-c2nc(-c3ccc4c(c3)nnn4C(C)C)no2)cn1 [Compound 25, 3-(1-isopropyl-1H-benzo[d][1,2,3]triazol-5-yl)-5-(6-isopropyl-pyridin-3-yl)-1,2,4-oxadiazole]
- Emax [1, 4]: < 75%
- EC50 ([1]; potency): > 10 µM
- Emax ([2]; inhibition of cAMP production): < 75%
- EC50 [2, 5]: > 0.316 µM

SMILES: CC(C)n1nnc2cc(-c3noc(-c4cccc5c4CCC5=O)n3)ccc21 [Compound 608, 4-{3-[1-(propan-2-yl)-1H-1,2,3-benzo-triazol-5-yl]-1,2,4-oxadiazol-5-yl}-2,3-dihydro-1H-inden-1-one]
- Emax ([1]; CHO-K1): > 75%
- EC50 ([1]; S1P1): < 10 µM
- Emax [2]: > 75%
- EC50 [2, 3]: < 0.316 µM

SMILES: COc1ccccc1-c1noc(-c2ccc3[nH]ncc3c2)n1 [Compound 371, 5-(1H-indazol-5-yl)-3-(2-methoxyphenyl)-1,2,4-oxadiazole]
- Emax [1, 4]: < 75%
- EC50 ([1]; potency): > 10 µM
- Emax ([2]; inhibition of cAMP production): < 75%
- EC50 [2, 5]: > 0.316 µM

SMILES: N#Cc1cc(-c2nnc(-c3ccc4[nH]c(=O)oc4c3)o2)ccc1NCCF [Compound 487, 2-[(2-fluoroethyl)amino]-5-[5-(2-oxo-2,3-dihydro-1,3-benzoxazol-6-yl)-1,3,4-oxadiazol-2-yl]benzonitrile]
- Emax ([1]; CHO-K1): > 75%
- EC50 ([1]; S1P1): < 10 µM
- Emax [2]: > 75%
- EC50 [2, 3]: > 0.316 µM

SMILES: CC(C)n1nnc2cc(-c3nc(-c4ccc(-c5ccccc5)cn4)no3)ccc21 [Compound 9, 5-[3-(5-phenylpyridin-2-yl)-1,2,4-oxadiazol-5-yl]-1-(propan-2-yl)-1H-1,2,3-benzotriazole]
- Emax [1, 4]: < 75%
- EC50 ([1]; potency): > 10 µM
- Emax ([2]; inhibition of cAMP production): < 75%
- EC50 [2, 5]: > 0.316 µM

SMILES: CCC1(CC)CC(=O)c2cc(-c3nc(-c4cncc(N)c4)no3)ccc2O1 [Compound 502, 6-(3-(5-aminopyridin-3-yl)-1,2,4-oxadiazol-5-yl)-2,2-diethylchroman-4-one]
- Emax ([1]; CHO-K1): > 75%
- EC50 ([1]; S1P1): < 10 µM
- Emax [2]: > 75%
- EC50 [2, 3]: < 0.316 µM

SMILES: CCc1ccccc1-c1nc(-c2ccc3c(c2)nnn3CC(C)(C)CO)no1 [Compound 527, 3-(5-(5-(2-ethylphenyl)-1,2,4-oxadiazol-3-yl)-1H-benzo[d][1,2,3]triazol-1-yl)-2,2-dimethylpropan-1-ol]
- Emax ([1]; CHO-K1): > 75%
- EC50 ([1]; S1P1): > 10 µM
- Emax [2]: > 75%
- EC50 [2, 3]: > 0.316 µM

SMILES: CCC1CC(=O)c2ccc(-c3nc(-c4cccnc4)no3)cc2O1 (centres unmarked) [Compound 588, 2-ethyl-7-[3-(pyridin-3-yl)-1,2,4-oxadiazol-5-yl]-3,4-dihydro-2H-1-benzopyran-4-one]
- Emax ([1]; CHO-K1): < 75%
- EC50 ([1]; S1P1): > 10 µM
- Emax [2]: < 75%
- EC50 [2, 3]: > 0.316 µM

SMILES: CCC1(CC)CC(=O)c2cc(-c3nc(-c4cccnc4F)no3)ccc2O1 [Compound 547, 2,2-diethyl-6-(3-(2-fluoropyridin-3-yl)-1,2,4-oxadiazol-5-yl)chroman-4-one]
- Emax ([1]; CHO-K1): > 75%
- EC50 ([1]; S1P1): < 10 µM
- Emax [2]: > 75%
- EC50 [2, 3]: < 0.316 µM

SMILES: CCC1(CC)CC(=O)c2cc(-c3nc(-c4ccc5ncoc5c4)no3)ccc2O1 [Compound 622, 6-(3-(benzo[d]oxazol-6-yl)-1,2,4-oxadiazol-5-yl)-2,2-diethyl-chroman-4-one]
- Emax ([1]; CHO-K1): < 75%
- EC50 ([1]; S1P1): > 10 µM
- Emax [2]: > 75%
- EC50 [2, 3]: < 0.316 µM

SMILES: CCC1(CC)CC(=O)c2cc(-c3nc(-c4cccs4)no3)ccc2O1 [Compound 467, 2,2-diethyl-6-(3-(thiophen-2-yl)-1,2,4-oxadiazol-5-yl)chroman-4-one]
- Emax ([1]; CHO-K1): > 75%
- EC50 ([1]; S1P1): < 10 µM
- Emax [2]: > 75%
- EC50 [2, 3]: < 0.316 µM
